Test system: GT4a-ED43 replicon
Test: Stable replicon assay, comparison to daclatasvir, GT4a-ED43
Assay type: cell-based
Details: Hepatitis C virus
From the text: The GT3a-S52 replicon plasmid pSGRlucneo-GT3a-S52-HDVR-(ISH) was synthesized by Genscript. This plasmid encodes a GT3a (strain S52, accession GU814264) bicistronic subgenomic replicon encoding the hRluc-Neo reporter gene in the first cistron and NS3-NS5B, driven by an encephalomyocarditis virus (EMCV) internal ribosome entry site (IRES), in the second cistron. The hepatitis delta ribozyme (HDVR) was included after the HCV 3′ NTR followed by a unique SpeI restriction site for linearization. This replicon encodes three cell culture adaptive mutations, P1226S (NS3), D1437H (NS3), and S2210I (NS5A), as described previously (Saeed et al 2012 Antimicrob. Agents Chemother. 54: 1878-1887). The GT4a-ED43 replicon plasmid pSGRlucneo-GT4a-ED43-HDVR-(KG) was synthesized by Genscript. […]
Stable HCV replicon cell lines were grown in complete media (Dulbecco's modified Eagle medium [DMEM], 2 mM L-glutamine, 0.1 mM essential amino acids, 1 mM sodium pyruvate, 10% fetal bovine serum) with the addition 500 μg/ml […] (G418). […] For stable and transient replicon assays, luciferase activity of compound-treated cells was measured relative to DMSO-treated cells after 72 h incubation using RENILLA-GLO™ Luciferase Assay (Promega). […]

| SMILES | EC50 [nM] |
| --- | --- |
| COC(=O)N[C@H](C(=O)N1CCC[C@H]1c1nc(-c2ccc(-c3ccc(-c4c[nH]c([C@@H]5CCCN5C(=O)[C@@H](NC(=O)OC)C(C)C)n4)cc3)cc2)c[nH]1)C(C)C [Daclatasvir, reference compound] | 0.025 |
| COC(=O)N[C@H](C(=O)N1C[C@]2(CCCOC2)C[C@H]1c1ncc(-c2ccc(-c3ccc4c(ccc5nc([C@@H]6C[C@@H]7CCC[C@@H]7N6C(=O)[C@@H](NC(=O)OC)C(C)C)[nH]c54)c3)cc2)[nH]1)C(C)C [Compound 16] | 0.011 |

Source: patent US10407445B2, “Hepatitis C virus inhibitors” (ENANTA PHARMACEUTICALS, INC., priority 2013, dated 2019)
